Common to all, as to assay type: in vivo
For series [1], the system named is White Peach Scale (Pseudaulacaspis pentagona). In words: Insecticidal effect on white peach scale, sprayed potato tuber (Test Examples 3 and 5). To be noted: 100 ppm liquid chemical, potato tuber with first-instar larvae, fourteen days after the treatment. An excerpt:
Insecticidal Effect on White Peach Scale (Pseudaulacaspis pentagona)
A preparation containing each compound of the present invention listed in Tables 2 to 4 or each comparative compound as an active ingredient was dispersed in and diluted with water to obtain a 100 ppm liquid chemical. A potato tuber with first-instar larvae of white peach scale as parasites was sprayed with the liquid chemical with a spray gun. Fourteen days after the treatment, the living insects were counted. In the same manner as in Test Example 2, the corrected mortality was calculated and the insecticidal effect was judged.
Insecticidal Effect on White Peach Scale (Pseudaulacaspis pentagona) at a Low Dosage
The same test as in Test Example 3 was carried out except for changing the concentration of the liquid chemical to 30 ppm.

Series [2] concerns Greenhouse Whitefly (Trialeuroddes vaporariorum). Nature of the series: Insecticidal effect on greenhouse whitefly, sprayed tomato leaf (Test Examples 2 and 4). The following applies: 100 ppm liquid chemical, sprayed tomato leaf, 20 adult whiteflies, four days after the inoculation. From the text:
Insecticidal Effect on Greenhouse Whitefly (Trialeuroddes vaporariorum)
A preparation containing each compound of the present invention listed in Tables 2 to 4 or each comparative compound as an active ingredient was dispersed in and diluted with water to obtain a 100 ppm liquid chemical. A tomato leaf set in a 20-ml vial with its stalk immersed in water was sprayed with the liquid chemical with a spray gun on a turntable. After air-dryness, the treated leaf was placed in a glass cylinder and inoculated with 20 adult greenhouse whiteflies. After the treatment, the glass cylinder was placed in a greenhouse. Four days after the inoculation, the living insects were counted. The corrected mortality was calculated according to the following equation and the insecticidal effect was judged according to the criterion shown below.
[formula] Criterion for Judgment:
Insecticidal Effect on Greenhouse (Trialeuroddes vaporariorum) at a Low Dosage
The same test as in Test Example 2 was carried out except for changing the concentration of the liquid chemical to 3 ppm.

Series [3] relates to Green Peach Aphid (Myzus persicae). In words: Insecticidal effect on green peach aphid, foliar spray on potted Chinese cabbage (Test Example 1). The following applies: 500 ppm liquid chemical, sprayed on Chinese cabbage stalks and leaves, six days after the spraying. An excerpt:
Insecticidal Effect on Green Peach Aphid (Myzus persicae)
A Chinese cabbage plant was planted in each of plastic pots with a diameter of 8 cm and a height of 8 cm, and green peach aphids were propagated on the plant, after which the parasites in each pot were counted. A preparation containing each compound of the present invention listed in Tables 2 to 4 or each comparative compound as an active ingredient was dispersed in and diluted with water to obtain a 500 ppm liquid chemical. The stalks and leaves of the potted Chinese cabbage plants were sprayed with the liquid chemical and air-dried, and then the pots were stored in a greenhouse. Six days after the spraying, green peach aphids parasitic on each Chinese cabbage plant were counted and the control efficacy was calculated by the following equation, whereby the insecticidal effect was judged according to the criterion shown below. Control efficacy=100−{(T×Ca)/(Ta×C)}×100 • Ta: number of parasites before spraying in treated group, • T: number of parasites after spraying in treated group, • Ca: number of parasites before spraying in untreated group, • C: number of parasites after spraying in untreated group.

The values that follow come from US8034931B2, “Process for producing substituted aminoquinazolinone derivative, intermediate therefor, and pest control agent” (Nihon Nohyaku Co., Ltd., priority 2003, dated 2011).

For the molecule `CN1C(=O)N(N=Cc2cccnc2)Cc2cc(C(F)(C(F)(F)F)C(F)(F)F)ccc21` [compound No. 1, 1-methyl-3-(3-pyridylmethylideneamino)-3,4-dihydro-6-[1,2,2,2-tetrafluoro-1-(trifluoromethyl)ethyl]-2(1H)-quinazolinone], the “Test Example 3: insecticidal effect (corrected mortality)” value (“Test Example 3: insecticidal effect” below) in series [1] is on record as “A (Corrected mortality 100%)”. In series [2], the “Test Example 2: insecticidal effect (corrected mortality)” value (“Test Example 2: insecticidal effect” below) is recorded as “A (Corrected mortality 100%)”. The “Test Example 1: insecticidal effect (control efficacy)” value (“Test Example 1: insecticidal effect” below) in series [3] was “A (Control efficacy 100%)”.
For `COCC(=O)N1C(=O)N(N=Cc2cccnc2)Cc2cc(C(F)(C(F)(F)F)C(F)(F)F)ccc21` [compound 15], in series [1], the “Test Example 3: insecticidal effect” value is “A (Corrected mortality 100%)”. In series [2], the “Test Example 2: insecticidal effect” value is given as “A (Corrected mortality 100%)”. Besides, the “Test Example 1: insecticidal effect” value in series [3] was “A (Control efficacy 100%)”.
Consider `O=C(c1ccc(-c2ccccc2)cc1)N1C(=O)N(N=Cc2cccnc2)Cc2cc(C(F)(C(F)(F)F)C(F)(F)F)ccc21` [compound 32], for which the “Test Example 3: insecticidal effect” value in series [1] is reported as “A (Corrected mortality 100%)”. The “Test Example 2: insecticidal effect” value in series [2] is given as “A (Corrected mortality 100%)”. For the same molecule, the “Test Example 1: insecticidal effect” value in series [3] is recorded as “A (Control efficacy 100%)”.
Take `CCCN1C(=O)N(N=Cc2cccnc2)Cc2cc(C(F)(C(F)(F)F)C(F)(F)F)ccc21` [compound No. 3]: the “Test Example 3: insecticidal effect” value in series [1] was “A (Corrected mortality 100%)”. Besides, the “Test Example 2: insecticidal effect” value in series [2] was “A (Corrected mortality 100%)”. Also, in series [3], the “Test Example 1: insecticidal effect” value is given as “A (Control efficacy 100%)”.
As for `O=C(c1cccc(C(F)(F)F)c1)N1C(=O)N(N=Cc2cccnc2)Cc2cc(C(F)(C(F)(F)F)C(F)(F)F)ccc21` [compound 26], in series [1], the “Test Example 3: insecticidal effect” value was “A (Corrected mortality 100%)”. For the same molecule, the “Test Example 2: insecticidal effect” value in series [2] is “A (Corrected mortality 100%)”. Also, in series [3], the “Test Example 1: insecticidal effect” value is “A (Control efficacy 100%)”.
Regarding `O=C(c1ccc(Cl)c(Cl)c1)N1C(=O)N(N=Cc2cccnc2)Cc2cc(C(F)(C(F)(F)F)C(F)(F)F)ccc21` [compound 31], the “Test Example 3: insecticidal effect” value in series [1] is given as “A (Corrected mortality 100%)”. For the same molecule, the “Test Example 2: insecticidal effect” value in series [2] is “A (Corrected mortality 100%)”. The “Test Example 1: insecticidal effect” value in series [3] is recorded as “A (Control efficacy 100%)”.
In the case of `CC(=O)N1C(=O)N(N=Cc2cccnc2)Cc2cc(C(F)(C(F)(F)F)C(F)(F)F)ccc21` [compound No. 8, 1-acetyl-3-(3-pyridylmethylideneamino)-3,4-dihydro-6-[1,2,2,2-tetrafluoro-1-(trifluoromethyl)ethyl]-2(1H)-quinazolinone], the “Test Example 3: insecticidal effect” value in series [1] was “A (Corrected mortality 100%)”. In series [2], the “Test Example 2: insecticidal effect” value is “A (Corrected mortality 100%)”. Further, in series [3], the “Test Example 1: insecticidal effect” value is given as “A (Control efficacy 100%)”.
As for `CCOC(=O)N1C(=O)N(N=Cc2cccnc2)Cc2cc(C(F)(C(F)(F)F)C(F)(F)F)ccc21` [compound 17], the “Test Example 3: insecticidal effect” value in series [1] is listed as “A (Corrected mortality 100%)”. Besides, the “Test Example 2: insecticidal effect” value in series [2] is “A (Corrected mortality 100%)”. Moreover, the “Test Example 1: insecticidal effect” value in series [3] is “A (Control efficacy 100%)”.
In the case of `COCN1C(=O)N(N=Cc2cccnc2)Cc2cc(C(F)(C(F)(F)F)C(F)(F)F)ccc21` [compound 4], the “Test Example 3: insecticidal effect” value in series [1] was “A (Corrected mortality 100%)”. Besides, the “Test Example 2: insecticidal effect” value in series [2] is recorded as “A (Corrected mortality 100%)”. For the same molecule, the “Test Example 1: insecticidal effect” value in series [3] was “A (Control efficacy 100%)”.
`O=C(C1CC1)N1C(=O)N(N=Cc2cccnc2)Cc2cc(C(F)(C(F)(F)F)C(F)(F)F)ccc21` [compound 14]: the “Test Example 3: insecticidal effect” value in series [1] is “A (Corrected mortality 100%)”. The “Test Example 2: insecticidal effect” value in series [2] is “A (Corrected mortality 100%)”. Besides, the “Test Example 1: insecticidal effect” value in series [3] is “A (Control efficacy 100%)”.
Regarding `O=C(c1ccc(C(F)(F)F)cc1)N1C(=O)N(N=Cc2cccnc2)Cc2cc(C(F)(C(F)(F)F)C(F)(F)F)ccc21` [compound 27], the “Test Example 3: insecticidal effect” value in series [1] is reported as “A (Corrected mortality 100%)”. In addition, in series [2], the “Test Example 2: insecticidal effect” value is reported as “A (Corrected mortality 100%)”. In series [3], the “Test Example 1: insecticidal effect” value is on record as “A (Control efficacy 100%)”.
As for `O=CN1C(=O)N(N=Cc2cccnc2)Cc2cc(C(F)(C(F)(F)F)C(F)(F)F)ccc21` [compound 7], in series [1], the “Test Example 3: insecticidal effect” value is “A (Corrected mortality 100%)”. In addition, the “Test Example 2: insecticidal effect” value in series [2] was “A (Corrected mortality 100%)”. Besides, the “Test Example 1: insecticidal effect” value in series [3] is given as “A (Control efficacy 100%)”.
Regarding `CCS(=O)(=O)N1C(=O)N(N=Cc2cccnc2)Cc2cc(C(F)(C(F)(F)F)C(F)(F)F)ccc21` [compound 23], the “Test Example 3: insecticidal effect” value in series [1] is listed as “A (Corrected mortality 100%)”. For the same molecule, the “Test Example 2: insecticidal effect” value in series [2] was “A (Corrected mortality 100%)”. Moreover, the “Test Example 1: insecticidal effect” value in series [3] is given as “A (Control efficacy 100%)”.
For `COc1ccccc1C(=O)N1C(=O)N(N=Cc2cccnc2)Cc2cc(C(F)(C(F)(F)F)C(F)(F)F)ccc21` [compound 29], the “Test Example 3: insecticidal effect” value in series [1] is given as “A (Corrected mortality 100%)”. Further, the “Test Example 2: insecticidal effect” value in series [2] is “A (Corrected mortality 100%)”. In series [3], the “Test Example 1: insecticidal effect” value is reported as “A (Control efficacy 100%)”.
Regarding `CCCC(=O)N1C(=O)N(N=Cc2cccnc2)Cc2cc(C(F)(C(F)(F)F)C(F)(F)F)ccc21` [compound 10], in series [1], the “Test Example 3: insecticidal effect” value was “A (Corrected mortality 100%)”. Besides, the “Test Example 2: insecticidal effect” value in series [2] is “A (Corrected mortality 100%)”. In addition, in series [3], the “Test Example 1: insecticidal effect” value is on record as “A (Control efficacy 100%)”.
Consider `CCCCOC(=O)N1C(=O)N(N=Cc2cccnc2)Cc2cc(C(F)(C(F)(F)F)C(F)(F)F)ccc21` [compound 20], for which the “Test Example 3: insecticidal effect” value in series [1] is listed as “A (Corrected mortality 100%)”. Further, the “Test Example 2: insecticidal effect” value in series [2] was “A (Corrected mortality 100%)”. Besides, the “Test Example 1: insecticidal effect” value in series [3] is “A (Control efficacy 100%)”.
